Experiments:
[1] = test system: Normal human fibroblasts; assay: Test for confirming anti-aging effect: amount of senescent cells by SA-β-gal (SPiDER-βGal) staining; assay type: cell-based; settings: for amount of the senescent cells relative to Control: Control = 100%, Example 1/2/3 = 0.002/0.01/0.05 wt % ingredient, Comparative Example 1 = 0.0023 wt % resveratrol
Procedure: Subsequent to initiation, Normal human fibroblasts (KURABO INDUSTRIES LTD., product No.: KF-4109) were cultured in a basal medium (DMEM (Nacalai Tesque, Inc., product No.: 08456-65)), 10% FBS (BioWest, product No.: S1820, Lot No. 516536), and 1% antibiotic (penicillin-streptomycin mixed solution (Nacalai Tesque, Inc., product No.: 26253-84)) in a CO2 incubator (5% CO2, 37° C.) until a required number of cells were obtained. […] After the resolution, Example and Comparative Example resolved in a basal medium were centrifuged respectively (120,000 rpm (2,000 s^-1), 10 minutes) to remove insoluble materials. After the centrifugal separation, supernatant was collected, filtered and sterilized through a sterilizing filter to be used for each test. Anti-aging effect of Example and Comparative Example was tested by measuring an activity of β-galactosidase (senescence-associated β-galactosidase; SA-β-gal) generally used as a cell aging marker. Normal human fibroblasts prepared with a basal medium was seeded on a 96-well plate so as to be 1×10^4 cells/0.1 ml/well (black plate for fluorescence observation (Sumitomo Bakelite Co., Ltd. product No.: MS-8096F)) and cultured for 24 hours. After the culture, culture supernatants were respectively replaced with the below mediums with different conditions, and normal human fibroblasts were cultured again. The conditions for each medium are as follows. Each cell cultured with mediums with each condition are referred to as Examples 1-3, Comparative Example 1, and Control respectively. Example 1: a basal medium comprising 0.002 wt % of grape seed-derived anti-aging ingredients of the present invention. Example 2: a basal medium comprising 0.01 wt % of grape seed-derived anti-aging ingredients of the present invention. Example 3: a basal medium comprising 0.05 wt % of grape seed-derived anti-aging ingredients of the present invention. Comparative Example 1: a basal medium containing 0.0023 wt % of resveratrol. Control: a basal medium (comprising no grape seed-derived anti-aging ingredients of the present invention nor resveratrol). Normal human fibroblasts were cultured respectively with the conditions for up to 21 days. The mediums were exchanged every 2 to 3 days. After the culture, culture supernatants were removed and the cells were washed twice with PBS (Nissui Pharmaceutical Co., Ltd., product No.: 05913). […] After wash, the basal medium was added to normal human fibroblasts, and nuclei staining (living cells) and stained images of the senescent cells were taken by a fluorescence microscope (Keyence Corporation, product No.: BZ-[…]). The amount of the senescent cells were calculated based on the respective fluorescent images. […]

[2] = test system: male and female mouse; settings: cited from earlier work
[3] = test system: budding yeast (Saccharomyces cerevisiae); settings: cited from earlier work
[4] = test system: Normal human fibroblasts; assay: Amount of apoptosis cells (FITC-Annexin V staining); assay type: cell-based; settings: for amount of the apoptosis cells compared to the Control: Control = 100%, Example 1/2/3 = 0.002/0.01/0.05 wt % ingredient, Comparative Example 1 = 0.0023 wt % resveratrol
From the text: Example 1: a basal medium comprising 0.002 wt % of grape seed-derived anti-aging ingredients of the present invention. Example 2: a basal medium comprising 0.01 wt % of grape seed-derived anti-aging ingredients of the present invention. Example 3: a basal medium comprising 0.05 wt % of grape seed-derived anti-aging ingredients of the present invention. Comparative Example 1: a basal medium containing 0.0023 wt % of resveratrol. Control: a basal medium (comprising no grape seed-derived anti-aging ingredients of the present invention nor resveratrol). The amount of the apoptosis cells was measured using Annexin V which has been conventionally used as an apoptosis marker. In more detail, the amount of the apoptosis cells was measured by selectively fluorescently-staining the apoptosis cells by fluorescently labeled Annexin V, using its property that Annexin V binds to phosphatidylserine often appearing on a surface of the apoptosis cells. After removing the culture supernatant of a normal human fibroblast cultured in Example 2, the normal human fibroblast was washed twice with PBS (NISSUI PHARMACEUTICAL CO., LTD., product No.: 05913). To the washed normal human fibroblast were added a 1×Binding Buffer containing a 1000-fold diluted Hoechist 33342 solution (DOJINDO LABORATORIES, product No.: 346-079511), a 20-fold diluted FITC-Annexin V, and a 20-fold diluted EthD-III. Then, the normal human fibroblast was cultured at 37° C. for 30 minutes. Then, after removing culture supernatant, the normal human fibroblast was washed twice in the 1×Binding Buffer. New 1×Binding Buffer was added to the normal human fibroblast after the washing, and images of nuclear staining (viable cell), Annexin V staining (apoptosis), and an EthD-III staining (necrosis) were taken by a fluorescence microscope. The amount of apoptosis cells and the amount of necrosis cells were calculated from the fluorescent observation images. Furthermore, FITC-Annexin V, EthD-III and 1×Binding Buffer used in Examples were from Apoptotic/Necrotic/Healthy Cells Detection Kit (Takara Bio, Inc. product No.: D25517).

[5] = test system: Normal human fibroblasts; assay: Amount of mitochondria (Mito Tracker Mitochondrion-Selective Probes); assay type: cell-based; settings: for amount of mitochondria relative to Control: Control = 100%, Example 1/2/3 = 0.002/0.01/0.05 wt % ingredient, Comparative Example 1 = 0.0023 wt % resveratrol
From the text: Example 1: a basal medium comprising 0.002 wt % of grape seed-derived anti-aging ingredients of the present invention. Example 2: a basal medium comprising 0.01 wt % of grape seed-derived anti-aging ingredients of the present invention. Example 3: a basal medium comprising 0.05 wt % of grape seed-derived anti-aging ingredients of the present invention. Comparative Example 1: a basal medium containing 0.0023 wt % of resveratrol. Control: a basal medium (comprising no grape seed-derived anti-aging ingredients of the present invention nor resveratrol). The amount of mitochondria was measured using Mito Tracker Mitochondrion-Selective Probes (Invitrogen, product No.: M7512) which can selectively label mitochondria in a cell. After removing culture supernatants of normal human fibroblasts cultured in Example 2, normal human fibroblasts were washed twice with PBS (Nissui Pharmaceutical Co., Ltd., product No.: 05913). To the washed cells were added a basal medium comprising a 1000-fold diluted Hoechist 33342 solution (DOJINDO LABORATORIES, product No.: 346-07951) and a 2000-fold diluted Mito Tracker Mitochondrion-Selective Probes (Invitrogen, product No.: M7512), and normal human fibroblasts were cultured at 37° C. for 30 minutes. After the culture, culture supernatants were removed and normal human fibroblasts were washed twice with PBS (Nissui Pharmaceutical Co., Ltd., product No.: 05913). After wash, PBS (Nissui Pharmaceutical Co., Ltd., product No.: 05913) was newly added to the normal human fibroblasts, and nuclei staining (living cells) and stained images of mitochondria were taken by a fluorescence microscope (Keyence Corporation, product No.: BZ-[…]). Subsequently, each fluorescence intensity was measured using a fluorescent plate reader (Thermo Fisher Scientific, product No.: VARIOSKAN FLASH) (Hoechis: excitation wavelength 356 nm, fluorescence wavelength 465 nm, Mito Tracker: excitation wavelength 579 nm, fluorescence wavelength 599 nm).

[6] = test system: Normal human fibroblasts; assay: Workload of a certain amount of mitochondria (MTT assay); assay type: cell-based; settings: for workload of a certain amount of mitochondria relative to Control: Control = 100%, Example 1/2/3 = 0.002/0.01/0.05 wt % ingredient, Comparative Example 1 = 0.0023 wt % resveratrol
From the text: Example 1: a basal medium comprising 0.002 wt % of grape seed-derived anti-aging ingredients of the present invention. Example 2: a basal medium comprising 0.01 wt % of grape seed-derived anti-aging ingredients of the present invention. Example 3: a basal medium comprising 0.05 wt % of grape seed-derived anti-aging ingredients of the present invention. Comparative Example 1: a basal medium containing 0.0023 wt % of resveratrol. Control: a basal medium (comprising no grape seed-derived anti-aging ingredients of the present invention nor resveratrol). The workload of a certain amount of mitochondria was measured by MTT assay. Since the only target of MTT assay is dehydrogenase activity of mitochondria, the result of MTT assay reflects the workload of a certain amount of mitochondria. After measuring the fluorescence intensity, supernatants were removed, and normal human fibroblasts were washed once with PBS (Nissui Pharmaceutical Co., Ltd., product No.: 05913). After the normal human fibroblasts were washed, they were replaced with PBS (100 μl/well) comprising 0.5 mg/ml of MTT (Thiazolyl Blue Tetrazolium Bromide (SIGMA, product No.: […] Subsequently, 100 μl of 0.01M HCl (SIGMA, product No.: 13-1690) and 10% SDS (Wako Pure Chemical Corporation, product No.: 191-07145) were added to each well and reacted at room temperature for 24 hours. After the reaction, formazan of MTT was resolved. After resolving formazan, absorbance was measured using a plate reader (Thermo Fisher Scientific, product No.: VARIOSKAN FLASH) (measurement wavelength 550 nm, reference wavelength 660 nm).

[7] = test system: Normal human fibroblasts; assay: Amount of necrosis cells (EthD-III staining); assay type: cell-based; settings: for amount of the necrosis cells compared to the Control: Control = 100%, Comparative Example 1 = 0.0023 wt % resveratrol
From the text: Example 1: a basal medium comprising 0.002 wt % of grape seed-derived anti-aging ingredients of the present invention. Example 2: a basal medium comprising 0.01 wt % of grape seed-derived anti-aging ingredients of the present invention. Example 3: a basal medium comprising 0.05 wt % of grape seed-derived anti-aging ingredients of the present invention. Comparative Example 1: a basal medium containing 0.0023 wt % of resveratrol. Control: a basal medium (comprising no grape seed-derived anti-aging ingredients of the present invention nor resveratrol). […] The amount of the necrosis cells was measured using an ethidium homodimer III (EthD-III) which has been conventionally used as a necrosis marker. In more detail, EthD-III is a film-impermeable nucleic acid probe and the amount of the necrosis cells was measured by using its property that neither the viable cells nor the apoptosis cells are stained but the necrosis cells are stained in strong red with EthD-III. After removing the culture supernatant of a normal human fibroblast cultured in Example 2, the normal human fibroblast was washed twice with PBS (NISSUI PHARMACEUTICAL CO., LTD., product No.: 05913). To the washed normal human fibroblast were added a 1×Binding Buffer containing a 1000-fold diluted Hoechist 33342 solution (DOJINDO LABORATORIES, product No.: 346-079511), a 20-fold diluted FITC-Annexin V, and a 20-fold diluted EthD-III. Then, the normal human fibroblast was cultured at 37° C. for 30 minutes. Then, after removing culture supernatant, the normal human fibroblast was washed twice in the 1×Binding Buffer. New 1×Binding Buffer was added to the normal human fibroblast after the washing, and images of nuclear staining (viable cell), Annexin V staining (apoptosis), and an EthD-III staining (necrosis) were taken by a fluorescence microscope. The amount of apoptosis cells and the amount of necrosis cells were calculated from the fluorescent observation images. Furthermore, FITC-Annexin V, EthD-III and 1×Binding Buffer used in Examples were from Apoptotic/Necrotic/Healthy Cells Detection Kit (Takara Bio, Inc. product No.: D25517).

Oc1ccc(/C=C/c2cc(O)cc(O)c2)cc1 [Comparative Example 1, trans-3,4′,5-trihydroxy-stillbene]
amount of senescent cells versus Control, in words ([1]; cells cultured for 7 days): more senescent cells among cells cultured for 7 days than Control
amount of the senescent cells relative to Control ([1]; cultured for 7 days): 519%
amount of the senescent cells relative to Control ([1]; cultured for 14 days): 102%
amount of the senescent cells relative to Control ([1]; cultured for 21 days): 64%
effect on life span of mice, in words [2]: does not extend the life span
extension of the life span of the budding yeast [3]: 70%
effect on the amount of the apoptosis cells, in words ([4]; 7 to 21 days of culture): increasing the amount of the apoptosis cells
amount of the apoptosis cells compared to the Control ([4]; cultured for 7 days): 2184%
amount of the apoptosis cells compared to the Control ([4]; cultured for 14 days): 1400%
amount of the apoptosis cells compared to the Control ([4]; cultured for 21 days): 4525%
effect on the amount of mitochondria, in words ([5]; 7 to 21 days of culture): increasing an amount of mitochondria
amount of mitochondria relative to Control ([5]; cultured for 7 days): 191%
amount of mitochondria relative to Control ([5]; cultured for 14 days): 228%
effect on the workload of a certain amount of mitochondria, in words ([6]; 7 to 21 days of culture): decreasing the workload of a certain amount of mitochondria
workload of a certain amount of mitochondria relative to Control ([6]; cultured for 7 days): 22%
workload of a certain amount of mitochondria relative to Control ([6]; cultured for 14 days): 20%
workload of a certain amount of mitochondria relative to Control ([6]; cultured for 21 days): 49%
effect on the amount of the necrosis cells, in words ([7]; 7 to 21 days of culture): increasing the amount of the necrosis cells in all the periods
necrosis cells at higher concentration, in words ([7]; concentration of resveratrol more than 0.0023 wt %): necrosis cells increase too much
amount of the necrosis cells compared to the Control ([7]; cultured for 7 days): 125%
amount of the necrosis cells compared to the Control ([7]; cultured for 14 days (FIG. 5B), Example 1/2/3 = 0.002/0.01/0.05 wt % ingredient): 801%
amount of the necrosis cells compared to the Control ([7]; cultured for 21 days, Example 1/2/3 = 0.002/0.01/0.05 wt % ingredient): 608%

Source: patent US20220347253A1, “HEALTH FOOD AND COSMETICS FOR INCREASING THE AMOUNT OF APOPTOSIS CELLS AND DECREASING THE AMOUNT OF NECROSIS CELLS AND A METHOD OF MANUFACTURING A SPROUT-FORCING GRAPE SEED-DERIVED INGREDIENT FOR INCREASING THE AMOUNT OF APOPTOSIS CELLS AND DECREASING THE AMOUNT OF NECROSIS CELLS” (priority 2017, published 2022)
